# Laboratory results published in ChEMBL document CHEMBL5385876, “Discovery of unglycosylated indolocarbazoles as ROCK2 isoform-selective inhibitors for the treatment of breast cancer metastasis” (Eur J Med Chem, 2023).
# Target: Rho-associated protein kinase 2 (Homo sapiens, UniProt O75116)
# Experiment: Inhibition of N-terminal His10-StrepII tagged human ROCK2 catalytic domain (1 to 553 residues) expressed in Sf9 insect cells by HTRF assay
# Chain of Rho-associated protein kinase 2 (O75116 whole entry, the tested form may be a part): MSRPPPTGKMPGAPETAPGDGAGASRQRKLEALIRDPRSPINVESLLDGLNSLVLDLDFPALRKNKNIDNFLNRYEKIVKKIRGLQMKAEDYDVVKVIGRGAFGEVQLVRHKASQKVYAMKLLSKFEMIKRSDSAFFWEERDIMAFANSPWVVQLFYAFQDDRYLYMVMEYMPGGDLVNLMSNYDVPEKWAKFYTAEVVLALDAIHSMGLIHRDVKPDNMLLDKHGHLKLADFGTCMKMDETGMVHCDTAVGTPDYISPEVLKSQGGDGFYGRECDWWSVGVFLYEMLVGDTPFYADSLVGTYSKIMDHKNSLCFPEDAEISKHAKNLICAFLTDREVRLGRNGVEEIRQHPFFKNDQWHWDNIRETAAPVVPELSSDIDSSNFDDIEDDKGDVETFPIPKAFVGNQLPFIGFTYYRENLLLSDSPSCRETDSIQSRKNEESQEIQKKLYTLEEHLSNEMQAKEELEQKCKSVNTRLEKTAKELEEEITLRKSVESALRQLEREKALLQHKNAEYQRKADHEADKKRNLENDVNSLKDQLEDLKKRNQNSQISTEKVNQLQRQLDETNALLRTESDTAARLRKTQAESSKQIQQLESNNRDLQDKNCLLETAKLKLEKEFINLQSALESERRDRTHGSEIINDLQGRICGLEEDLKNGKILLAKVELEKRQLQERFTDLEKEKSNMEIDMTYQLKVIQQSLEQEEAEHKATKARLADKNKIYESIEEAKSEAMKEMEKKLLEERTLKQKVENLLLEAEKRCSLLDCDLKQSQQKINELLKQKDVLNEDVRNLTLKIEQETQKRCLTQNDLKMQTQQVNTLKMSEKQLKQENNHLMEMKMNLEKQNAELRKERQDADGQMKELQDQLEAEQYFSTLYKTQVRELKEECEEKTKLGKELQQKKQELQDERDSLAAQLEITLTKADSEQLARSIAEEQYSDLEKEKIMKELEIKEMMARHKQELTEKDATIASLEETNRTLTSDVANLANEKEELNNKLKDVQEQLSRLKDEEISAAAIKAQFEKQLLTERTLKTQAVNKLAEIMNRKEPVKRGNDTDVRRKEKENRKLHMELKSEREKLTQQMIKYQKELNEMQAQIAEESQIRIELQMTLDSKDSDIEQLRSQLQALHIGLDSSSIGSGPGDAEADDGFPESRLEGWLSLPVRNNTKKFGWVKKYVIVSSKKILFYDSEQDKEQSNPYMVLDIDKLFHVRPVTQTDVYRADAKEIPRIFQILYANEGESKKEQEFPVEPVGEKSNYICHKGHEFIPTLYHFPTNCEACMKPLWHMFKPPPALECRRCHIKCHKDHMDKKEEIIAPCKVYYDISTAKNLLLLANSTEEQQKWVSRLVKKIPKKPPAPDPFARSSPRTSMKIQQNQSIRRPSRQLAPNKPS
row,SMILES,IC50
1,CO[C@H]1NC(=O)c2c1c1c3ccccc3[nH]c1c1c2c2ccccc2n1[C@@H]1O[C@@H](C)[C@H](O)[C@@H](O)[C@H]1O,> 500 nM
2,CN1Cc2c(c3c4ccccc4[nH]c3c3[nH]c4ccccc4c23)C1=O,510 nM
3,CC(C)(C)c1ccc2[nH]c3c4[nH]c5ccccc5c4c4c(c3c2c1)CNC4=O,> 500 nM
4,C[C@@H]1O[C@@H]2C[C@](O)([C@H]1O)n1c3ccccc3c3c4c(c5c6cc(O)ccc6n2c5c31)C(=O)NC4,210 nM
5,C[C@H]1O[C@@H]2C[C@](O)([C@@H]1O)n1c3ccccc3c3c4c(c5c6ccccc6n2c5c31)C(=O)NC4,> 500 nM
6,CC(=O)N[C@@H]1C[C@H](n2c3ccccc3c3c4c(c5c6ccccc6[nH]c5c32)CNC4=O)O[C@@H](C)[C@@H]1O,2700 nM
7,O=C1NCc2c1c1c3ccc(O)cc3[nH]c1c1[nH]c3ccccc3c21,23 nM
8,C[C@@H]1O[C@@H](n2c3ccccc3c3c4c(c5c6ccccc6[nH]c5c32)CNC4=O)[C@H](O)[C@H](O)[C@H]1O,470 nM
9,Cc1ccc2[nH]c3c4[nH]c5ccccc5c4c4c(c3c2c1)C(=O)NC4=O,> 500 nM
10,Cn1c2ccccc2c2c3c(c4c5ccccc5[nH]c4c21)C(=O)NC3,550 nM
11,COC(=O)[C@@]1(OC)C[C@H]2O[C@]1(C)n1c3ccccc3c3c4c(c5c6ccccc6n2c5c31)C(=O)NC4,330 nM
12,COc1cc(/C=C(/C(N)=O)n2c3ccccc3c3c4c(c5c6ccccc6[nH]c5c32)CNC4=O)ccc1O,2120 nM
13,CN[C@@H]1C[C@H]2O[C@@](C)([C@@H]1OC)n1c3ccccc3c3c4c(c5c6ccccc6n2c5c31)C(=O)NC4=O (stereo in doubt; 14),310 nM
14,COc1ccc2[nH]c3c4[nH]c5ccc(OC)cc5c4c4c(c3c2c1)CNC4=O,> 500 nM
15,C[C@H]1O[C@@H]2C[C@](O)([C@H]1O)n1c3ccccc3c3c4c(c5c6cc(O)ccc6n2c5c31)C(=O)NC4,120 nM
16,CO[C@@H]1[C@H](NC(=O)C(=O)c2c[nH]c3ccccc23)C[C@H]2O[C@]1(C)n1c3ccccc3c3c4c(c5c6ccccc6n2c5c31)C(=O)NC4,4780 nM
17,COc1ccc2[nH]c3c4[nH]c5ccc(O)cc5c4c4c(c3c2c1)C(=O)NC4,460 nM
18,C[C@@H]1O[C@@H](n2c3ccc(O)cc3c3c4c(c5c6ccccc6[nH]c5c32)CNC4=O)[C@H](O)[C@H](O)[C@H]1O,76 nM
19,C[C@@H]1O[C@@H](n2c3ccccc3c3c4c(c5c6ccccc6[nH]c5c32)CNC4=O)C[C@@H](N)[C@H]1OC(O)C1CO1 (stereo partly drawn),140 nM
20,O=C1NCc2c1c1c3ccccc3[nH]c1c1[nH]c3ccccc3c21 [STAUROSPORINONE],> 500 nM
21,COC1NC(=O)c2c1c1c3ccccc3[nH]c1c1[nH]c3ccc(O)cc3c21 (stereo not drawn),320 nM
22,COC(=O)[C@H]1C[C@H]2O[C@]1(C)n1c3ccccc3c3c4c(c5c6ccccc6n2c5c31)C(=O)NC4,370 nM
23,Cc1ccc2[nH]c3c4[nH]c5ccccc5c4c4c(c3c2c1)C(=O)NC4,550 nM
24,COC(=O)c1cccc2c1NC1(C[C@H]3O[C@]1(C)n1c4ccccc4c4c5c(c6c7ccccc7n3c6c41)C(=O)NC5)C(=O)O2 (stereo partly drawn),> 500 nM
25,C[C@]12O[C@H](C[C@]1(O)C(=O)O)n1c3ccccc3c3c4c(c5c6ccccc6n2c5c31)C(=O)NC4=O,300 nM
26,COc1ccc2c(c1)c1c3c(c4c5ccccc5n(C)c4c1n2C)C(=O)N(C)C3=O,> 500 nM
27,O=C1NC(=O)c2c1c1c3ccccc3[nH]c1c1[nH]c3cc(O)ccc3c21,530 nM

row,SMILES,IC50
1,C[C@@H]1O[C@@H](n2c3ccccc3c3c4c(c5c6ccccc6[nH]c5c32)CNC4=O)C[C@@H](NC=O)[C@H]1O,> 500 nM
2,Cc1ccc2[nH]c3c4[nH]c5ccccc5c4c4c(c3c2c1)CNC4=O,> 500 nM
3,O=C1NCc2c1c1c3ccccc3[nH]c1c1[nH]c3cc(O)ccc3c21,200 nM
4,C[C@]12O[C@H](C[C@]1(O)C(=O)O)n1c3ccccc3c3c4c(c5c6ccccc6n2c5c31)CNC4=O,> 500 nM
5,O=C1NC(=O)c2c1c1c3ccccc3[nH]c1c1[nH]c3ccccc3c21 [STAUROSPORINE AGLYCON],> 500 nM
6,O=C1NC(O)c2c1c1c3ccccc3[nH]c1c1[nH]c3ccccc3c21 (stereo not drawn),> 500 nM
7,COc1ccc2[nH]c3c4[nH]c5ccc(OC)cc5c4c4c(c3c2c1)C(=O)NC4=O [GW296115X],> 500 nM
8,O=C1NCc2c1c1c3cccc(O)c3[nH]c1c1[nH]c3ccccc3c21,260 nM
9,COC(=O)[C@]1(O)C[C@H]2O[C@]1(C)n1c3ccccc3c3c4c(c5c6ccccc6n2c5c31)C(=O)NC4,> 500 nM
10,COc1cccc2[nH]c3c4[nH]c5ccccc5c4c4c(c3c12)C(=O)NC4=O,> 500 nM
11,COC1NC(=O)c2c1c1c3ccccc3[nH]c1c1[nH]c3ccccc3c21 (stereo not drawn),> 500 nM
12,COc1ccc2[nH]c3c4[nH]c5ccccc5c4c4c(c3c2c1)C(=O)NC4=O,100 nM
13,O=C1NC(=O)c2c1c1c3cc(O)ccc3[nH]c1c1[nH]c3ccc(O)cc3c21,7 nM
14,C[C@@H]1O[C@@H](n2c3ccccc3c3c4c(c5c6ccccc6[nH]c5c32)C(=O)NC4=O)[C@H](O)[C@H](O)[C@H]1O,> 500 nM
15,CC(C)(C)c1ccc2[nH]c3c4[nH]c5ccccc5c4c4c(c3c2c1)C(=O)NC4,> 500 nM
16,COc1cccc2c1[nH]c1c3[nH]c4ccccc4c3c3c(c21)C(=O)NC3=O,> 500 nM
17,COc1ccc2[nH]c3c4[nH]c5ccc(O)cc5c4c4c(c3c2c1)CNC4=O,120 nM
18,COc1ccc2[nH]c3c4[nH]c5ccccc5c4c4c(c3c2c1)C(=O)NC4,> 500 nM
19,O=C1NC(=O)c2c1c1c3ccccc3[nH]c1c1[nH]c3ccc(O)cc3c21,670 nM
20,COc1ccc2c(c1)[nH]c1c3[nH]c4ccccc4c3c3c(c21)C(=O)NC3=O,620 nM
21,C[C@@H]1O[C@@H]2C[C@](O)([C@H]1O)n1c3ccccc3c3c4c(c5c6ccccc6n2c5c31)C(=O)NC4,> 500 nM
22,O=C1NC(=O)c2c1c1c3ccccc3[nH]c1c1[nH]c3c(O)cccc3c21,> 500 nM
23,COc1ccc2[nH]c3c4[nH]c5ccccc5c4c4c(c3c2c1)CNC4=O,> 500 nM
24,CC(=O)N[C@H]1C[C@H](n2c3ccccc3c3c4c(c5c6ccccc6[nH]c5c32)CNC4=O)O[C@@H](C)[C@@H]1O,210 nM
25,COC(=O)[C@@]1(O)C[C@H]2O[C@]1(C)n1c3ccccc3c3c4c(c5c6ccccc6n2c5c31)C(=O)NC4 [K-252A],> 500 nM
26,CN[C@@H]1C[C@H]2O[C@@](C)([C@@H]1OC)n1c3ccccc3c3c4c(c5c6ccccc6n2c5c31)C(=O)NC4=O (stereo in doubt; 15),20 nM
27,O=C1NCc2c1c1c3cc(O)ccc3[nH]c1c1[nH]c3ccc(O)cc3c21,3 nM

# Results, then the molecule that gave them:
row,IC50,SMILES
1,360 nM,CO[C@@H]1[C@H](N(C)C(N)=O)C[C@H]2O[C@]1(C)n1c3ccccc3c3c4c(c5c6ccccc6n2c5c31)C(=O)NC4
2,> 500 nM,CO[C@@H]1/C(=N/O)C[C@H]2O[C@]1(C)n1c3ccccc3c3c4c(c5c6ccccc6n2c5c31)C(=O)NC4
3,2880 nM,C[C@]12O[C@H](C[C@@H](O)[C@H]1O)n1c3ccccc3c3c4c(c5c6ccccc6n2c5c31)CNC4=O
4,570 nM,CO[C@@H]1[C@H](N(C)C(C)=O)C[C@H]2O[C@]1(C)n1c3ccccc3c3c4c(c5c6ccccc6n2c5c31)C(=O)NC4
5,> 500 nM,CO[C@@H]1C(C)(O)O[C@@H]2C[C@@]1(OC)n1c3ccccc3c3c4c(c5c6ccccc6n2c5c31)C(=O)NC4 (stereo partly drawn)
6,> 500 nM,CO[C@@H]1[C@@H](O)[C@@H](O)[C@H]2O[C@]1(C)n1c3ccccc3c3c4c(c5c6ccccc6n2c5c31)C(=O)N[C@H]4O
7,35 nM,C[C@]12O[C@H](C[C@@H](N)[C@H]1O)n1c3ccccc3c3c4c(c5c6ccccc6n2c5c31)CNC4=O
8,60 nM,CC(=O)N[C@H]1C[C@H]2O[C@@](C)([C@@H]1O)n1c3ccccc3c3c4c(c5c6ccccc6n2c5c31)C(=O)NC4
9,2070 nM,CO[C@@H]1[C@H](N(C)C(C)=O)C[C@H]2O[C@]1(C)n1c3ccccc3c3c4c(c5c6ccccc6n2c5c31)C(=O)NC4=O
10,2240 nM,CC(=O)N[C@@H]1C[C@H](n2c3ccccc3c3c4c(c5c6ccccc6[nH]c5c32)C(=O)NC4=O)O[C@@H](C)[C@@H]1O
11,260 nM,CO[C@H]1[C@@H](N2CC[C@@H](O)C2=O)C[C@H]2O[C@@]1(C)n1c3ccccc3c3c4c(c5c6ccccc6n2c5c31)C(=O)NC4 (racemic)
12,> 500 nM,CO[C@H]1NC(=O)c2c1c1c3ccccc3n3c1c1c2c2ccccc2n1[C@@H]1O[C@@]3(C)[C@H](OC)[C@@H](O)[C@H]1O
13,360 nM,CO[C@@H]1[C@H](N)C[C@H]2O[C@]1(C)n1c3ccccc3c3c4c(c5c6ccccc6n2c5c31)C(=O)NC4=O
14,> 500 nM,CO[C@@H]1[C@H](NC=O)C[C@H]2O[C@]1(C)n1c3ccccc3c3c4c(c5c6ccccc6n2c5c31)C(=O)NC4
15,250 nM,C[C@@H]1O[C@@H](n2c3ccccc3c3c4c(c5c6ccccc6[nH]c5c32)C(=O)NC4=O)C[C@@H](NC=O)[C@H]1O
16,2720 nM,CNC(=O)C[C@H]1O[C@@](C)(C(=O)OC)n2c3ccccc3c3c4c(c5c6ccccc6n1c5c32)C(=O)NC4
17,> 500 nM,CO[C@@H]1[C@@H](O)[C@@H](O)[C@H]2O[C@]1(C)n1c3ccccc3c3c4c(c5c6ccccc6n2c5c31)C(=O)N[C@@H]4O
18,> 500 nM,CO[C@@H]1[C@@H](O)[C@@H](O)[C@H]2O[C@]1(C)n1c3ccccc3c3c4c(c5c6ccccc6n2c5c31)C(=O)NC4=O
19,> 500 nM,CO[C@H]1C(=O)C[C@H]2O[C@]1(C)n1c3ccccc3c3c4c(c5c6ccccc6n2c5c31)C(=O)NC4
20,140 nM,CO[C@@H]1[C@H](N(C)C=O)C[C@H]2O[C@]1(C)n1c3ccccc3c3c4c(c5c6ccccc6n2c5c31)C(=O)NC4
21,690 nM,CO[C@@H]1[C@@H](O)[C@@H](O)[C@H]2O[C@]1(C)n1c3ccccc3c3c4c(c5c6ccccc6n2c5c31)C(=O)NC4
22,> 500 nM,CO[C@@H]1[C@@H](O)[C@@H](O)[C@H]2O[C@]1(C)n1c3ccccc3c3c4c(c5c6ccccc6n2c5c31)C(=O)N[C@H]4OC
23,340 nM,CO[C@@H]1[C@H](NC(C)=O)C[C@H]2O[C@]1(C)n1c3ccccc3c3c4c(c5c6ccccc6n2c5c31)C(=O)NC4
24,8000 nM,CO[C@@H]1[C@H](O)C[C@H]2O[C@]1(C)n1c3ccccc3c3c4c(c5c6ccccc6n2c5c31)C(=O)NC4
